Reference: patent US9890185B2, “Urea derivatives useful as kinase inhibitors” (Respivert Limited, priority 2013, dated 2018)

Tests used:
[1] = molecular target: p38 MAPKα isoform (MAPK14) (Homo sapiens (Human), UniProt Q16539); experiment: p38 MAPKα enzyme inhibition (FRET, Z-LYTE, Method 2); assay type: biochemical
Method in brief: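 Z-LYTE FRET: p38 MAPKα (80 ng/mL for Method 1, 200 ng/mL for Method 2, pre-dilution) preincubated 2 hr RT with compound (4–0.004 μg/mL solutions), activity read via MAPKAP-K2 phosphorylation after 1 hr RT and 1 hr protease development. Coumarin/fluorescein ratio gives phosphorylation; % inhibition versus uninhibited control, IC50 from concentration-response curve.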

[2] = molecular target: c-Src (Homo sapiens (Human), UniProt P12931); experiment: c-Src enzyme inhibition (FRET, Z-LYTE); assay type: biochemical
c-Src, sequence (P12931 whole entry, looked up): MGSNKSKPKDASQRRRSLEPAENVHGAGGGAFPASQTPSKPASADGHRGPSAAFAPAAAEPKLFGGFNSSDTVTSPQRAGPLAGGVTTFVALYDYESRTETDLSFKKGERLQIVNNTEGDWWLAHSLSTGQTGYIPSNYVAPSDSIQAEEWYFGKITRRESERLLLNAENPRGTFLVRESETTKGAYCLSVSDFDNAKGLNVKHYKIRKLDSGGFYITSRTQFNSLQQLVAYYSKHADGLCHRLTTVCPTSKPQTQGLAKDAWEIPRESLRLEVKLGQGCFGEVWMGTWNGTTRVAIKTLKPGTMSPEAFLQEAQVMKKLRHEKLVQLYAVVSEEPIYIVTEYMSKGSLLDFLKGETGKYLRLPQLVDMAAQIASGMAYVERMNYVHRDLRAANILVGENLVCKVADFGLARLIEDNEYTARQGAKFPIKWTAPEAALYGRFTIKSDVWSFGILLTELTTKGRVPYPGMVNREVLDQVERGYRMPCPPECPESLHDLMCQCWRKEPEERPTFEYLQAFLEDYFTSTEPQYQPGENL
Method in brief: (§1)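 Read-out is the coumarin-to-fluorescein emission ratio after protease cleavage of unphosphorylated peptide, with IC50 taken from concentration-response data. Compounds were tested at four levels (added solutions 4–0.004 μg/mL) after 2 hr enzyme preincubation at RT; kinase reaction ran 1 hr with ATP solutions of 800 μM (c-Src) or 60 μM (Syk).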

[3] = molecular target: Syk (Homo sapiens (Human), UniProt P43405); experiment: Syk enzyme inhibition (FRET, Z-LYTE); assay type: biochemical
Method in brief: as §1

[4] = molecular target: GSK 3α (Homo sapiens (Human), UniProt P49840); experiment: GSK 3α enzyme inhibition (FRET, Z-LYTE, Method 2); assay type: biochemical; settings: read-out: IC50 Values for Enzyme Inhibition, GSK3α
GSK 3α, sequence (P49840 whole entry): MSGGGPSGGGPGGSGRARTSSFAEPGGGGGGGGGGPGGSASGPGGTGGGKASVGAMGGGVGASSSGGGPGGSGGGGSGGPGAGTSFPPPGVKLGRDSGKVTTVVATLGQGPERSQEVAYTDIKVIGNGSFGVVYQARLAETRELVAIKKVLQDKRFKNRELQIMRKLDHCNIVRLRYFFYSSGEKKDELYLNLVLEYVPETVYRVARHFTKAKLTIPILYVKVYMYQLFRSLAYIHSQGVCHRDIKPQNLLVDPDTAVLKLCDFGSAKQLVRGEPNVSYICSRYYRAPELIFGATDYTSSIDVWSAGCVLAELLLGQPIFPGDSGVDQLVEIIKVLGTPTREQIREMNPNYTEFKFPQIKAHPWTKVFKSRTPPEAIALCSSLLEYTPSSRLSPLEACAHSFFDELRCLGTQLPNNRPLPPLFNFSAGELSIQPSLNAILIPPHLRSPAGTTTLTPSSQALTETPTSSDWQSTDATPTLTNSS
Method in brief: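 Human GSK3α (500 ng/mL) preincubated with compound (4, 0.4, 0.04 or 0.004 μg/mL) at RT for 2 h (Method 1) or 105 min (Method 2). Then FRET peptide (8 μM) and ATP (40 μM) added for 1 h, followed by protease development for 1 h. IC50 from the coumarin/fluorescein emission ratio relative to uninhibited control.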

[5] = test system: PBMCs; experiment: LPS-induced IL-8 release in PBMC cells (assay b); assay type: cell-based, human; settings: Homo sapiens, PBMC; LPS-stimulated PBMCs; read-out: IC50 Values for Inhibition of Cytokine Release, PBMCs IL-8
Method in brief: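 Human PBMCs from healthy donors, isolated by density gradient, were pretreated with compound for 2 h and then stimulated with 1 ng/mL LPS (E. coli 0111:B4) for 24 h at 37° C, 5% CO2. Supernatant IL-8 and TNFα were measured by sandwich ELISA, and IC50 was taken from the dose-response curve.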

[6] = test system: HT29 cells; experiment: IL-1β-induced IL-8 release in HT29 cells (assay d); assay type: cell-based; settings: Homo sapiens, HT-29; IL-1β-stimulated HT29 cells; read-out: IC50 Values for Inhibition of Cytokine Release, HT29 cells IL-8
Procedure: HT29 cells, a human colon adenocarcinoma cell line, are plated in a 96 well plate (24 hrs) and pre-treated with compounds at the desired concentration for 2 hours before addition of 5 ng/mL of IL-1β (Abcam) for 24 hours. Supernatants are harvested for IL-8 quantification by Sandwich ELISA (Duo-set, R&D System). The IC50 is determined from the dose response curve.

[7] = test system: d-U937 cells; experiment: Accumulation of β catenin in d-U937 cells (assay m); assay type: cell-based, human; settings: percentage relative to Reference Compound at 1 μg/mL
Method in brief: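 PMA-differentiated (100 ng/mL, 48–72 hr) human U937 macrophage-type cells treated with test compound or vehicle for 18 hr. β-catenin measured by in-cell ELISA (anti-β-catenin, HRP secondary, TMB, OD450–655). Signal corrected for cell number by dividing by crystal violet OD595.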

[8] = test system: PBMCs; experiment: Cell mitosis assay in PBMCs (assay g); assay type: cell-based; settings: Homo sapiens, PBMC, test compound 5 μg/mL
Method in brief: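 Human PBMCs from healthy donors, stimulated with 2% PHA for 48 hr, then exposed to test compounds for 20 hr, with demecolcine (0.1 μg/mL) added 2 hr before harvest. Cells fixed/permeabilised, stained for phospho-histone 3 and propidium iodide, and read by flow cytometry gated on lymphocytes. % mitosis inhibition vs 0.5% DMSO vehicle.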

[9] = test system: PBMCs; experiment: IL-2 release in CD3/CD28 stimulated PBMC cells (assay c); assay type: cell-based; settings: Homo sapiens, read-out: IC50 Values for Inhibition of Cytokine Release, PBMCs IL-2
Method in brief: (§2)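 Sandwich ELISA of supernatant IL-2 and IFN gamma; IC50 from dose-response curve. Cells: density-gradient PBMCs from healthy subjects on plate-bound anti-CD3 0.3 μg/mL + anti-CD28 3 μg/mL, compound added, 3 d culture.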

[10] = test system: PBMCs; experiment: IFN gamma release in CD3/CD28 stimulated PBMC cells (assay c); assay type: cell-based; settings: Homo sapiens, read-out: IC50 Values for Inhibition of Cytokine Release, PBMCs IFNγ
Method in brief: as §2

p38 MAPKα isoform (MAPK14), sequence (Q16539 whole entry, canonical isoform): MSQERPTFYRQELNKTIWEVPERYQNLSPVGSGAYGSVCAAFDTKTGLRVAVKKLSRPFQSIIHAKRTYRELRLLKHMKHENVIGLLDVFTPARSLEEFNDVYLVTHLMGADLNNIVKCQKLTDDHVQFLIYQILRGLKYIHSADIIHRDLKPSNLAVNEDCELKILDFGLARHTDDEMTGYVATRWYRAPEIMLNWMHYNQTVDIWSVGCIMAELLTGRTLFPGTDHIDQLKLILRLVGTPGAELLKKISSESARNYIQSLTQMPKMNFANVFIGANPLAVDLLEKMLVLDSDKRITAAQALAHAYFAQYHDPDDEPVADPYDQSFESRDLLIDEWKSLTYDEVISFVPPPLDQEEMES

Row | Structure (SMILES) | IC50 [1] [nM] | IC50 [2] [nM] | IC50 [3] [nM] | IC50 [4] [nM] | IC50 [6] [nM] | IC50 [5] [nM] | % β-catenin induction ([7]; test compound 1 μg/mL) [%] | % β-catenin induction ([7]; test compound 5 μg/mL) [%] | % β-catenin induction ([7]; test compound 10 μg/mL) [%] | inhibition at 5 µg/mL [8] [%] | IC50 [9] [nM] | IC50 [10] [nM]
1 | COCCOCCOCCOc1cc(Nc2nccc(Oc3ccc(NC(=O)Nc4cc(C(C)(C)C)cc(CC(N)=O)c4OC)c4ccccc34)n2)cc(OC)c1 [15(c), 2-(5-(tert-butyl)-2-methoxy-3-(3-(4-((2-((3-methoxy-5-(2-(2-(2-methoxyethoxy)ethoxy)-ethoxy)phenyl)amino)pyrimidin-4-yl)oxy)naphthalen-1-yl)ureido)phenyl)acetamide] | 52 | 16 | 103 | 844 | 3.6 | 1.6 | 5.5 | 36.0 | 33.0 |  |  | 
2 | COc1c(NC(=O)Nc2ccc(Oc3ccnc(Nc4ccccc4)c3)c3ccccc23)cc(C(C)(C)C)cc1C(=O)NCCN1CCC1 [38(a), N-(2-(Azetidin-1-yl)ethyl)-5-(tert-butyl)-2-methoxy-3-(3-(4-((2-(phenylamino)pyridin-4-yl)oxy)naphthalen-1-yl)ureido)benzamide] | 119 | 74 | 54 | 3320 | 25.7 | 3.8 | 5.0 | 10.7 | 19.0 | 86.2 |  | 
3 | COc1cc(CO)cc(Nc2cc(Oc3ccc(NC(=O)Nc4cc(C(C)(C)C)cc(P(C)(C)=O)c4OC)c4ccccc34)ccn2)c1 [38(c), 1-(5-(tert-Butyl)-3-(dimethylphosphoryl)-2-methoxyphenyl)-3-(4-((2-((3-(hydroxymethyl)-5-methoxyphenyl)amino)pyridin-4-yl)oxy)naphthalen-1-yl)urea] | 27 | 12 | 31 | 2220 | 7.3 | 1.7 | 3.5 | 16.0 | 28.5 | 90.2 |  | 
4 | COc1c(NC(=O)Nc2ccc(Oc3ccnc(NCc4ccccn4)c3)c3ccccc23)cc(C(C)(C)C)cc1P(C)(C)=O [38(e), 1-(5-(tert-Butyl)-3-(dimethylphosphoryl)-2-methoxyphenyl)-3-(4-((2-((pyridin-2-ylmethyl)amino)pyridin-4-yl)oxy)naphthalen-1-yl)urea] | 5 | 522 | > 1600 | 1980 | 15.9 | 2.9 | 2.0 | 30.5 | 32.5 | 41.6 |  | 
5 | COc1c(CC(N)=O)cc(C(C)(C)C)cc1NC(=O)Nc1ccc(Oc2ccnc(Nc3cccc(OS(C)(=O)=O)c3)c2)c2ccccc12 [38(r), 3-((4-((4-(3-(3-(2-Amino-2-oxoethyl)-5-(tert-butyl)-2-methoxyphenyl)ureido)naphthalen-1-yl)oxy)pyridin-2-yl)amino)phenyl methanesulfonate] | 151 | 94 | > 1460 | 2210 | 25.9 | 1.9 |  |  |  | 56.1 | 153 | 9.8
6 | COc1cc(Nc2cc(Oc3ccc(NC(=O)Nc4cc(C(C)(C)C)cc(C[S+](C)[O-])c4OC)c4ccccc34)ccn2)cc(C(=O)NCCN2CCOCC2)c1 (stereo not shown) [38(u), 3-((4-((4-(3-(5-(tert-Butyl)-2-methoxy-3-((methylsulfinyl)methyl)phenyl)ureido)naphthalen-1-yl)oxy)pyridin-2-yl)amino)-5-methoxy-N-(2-morpholinoethyl)benzamide] | 15 | 13 |  | 1070 | 2.6 | 1 |  |  |  | 72.2 | 171 | 2.9

The next lines start with results.

Row | IC50 [1] [nM] | IC50 [2] [nM] | IC50 [3] [nM] | IC50 [4] [nM] | IC50 [6] [nM] | Structure (SMILES) | IC50 [5] [nM] | % β-catenin induction ([7]; test compound 1 μg/mL) [%] | % β-catenin induction ([7]; test compound 5 μg/mL) [%] | % β-catenin induction ([7]; test compound 10 μg/mL) [%] | inhibition at 5 µg/mL [8] [%] | IC50 [9] [nM] | IC50 [10] [nM]
7 |  |  |  | > 9380 | 7.3 | COCCOCCOCCOc1cc(Nc2nccc(Oc3ccc(NC(=O)Nc4cc(C(C)(C)C)cc(OS(C)(=O)=O)c4OC)c4ccccc34)n2)cc(OC)c1 [Example 5, 5-(tert-Butyl)-2-methoxy-3-(3-(4-((2-((3-methoxy-5-(2-(2-(2-methoxyethoxy)ethoxy)-ethoxy)phenyl)amino)pyrimidin-4-yl)oxy)naphthalen-1-yl)ureido)phenyl methanesulfonate] | 8.7 |  |  |  |  |  | 
8 | 8 | > 1640 | > 1640 | 3410 | 2 | COc1c(NC(=O)Nc2ccc(Oc3ccnc(NCc4ccccn4)c3)c3ccccc23)cc(C(C)(C)C)cc1[S+](C)[O-] (stereo not shown) [Example 42, 1-(5-(tert-Butyl)-2-methoxy-3-(methylsulfinyl)phenyl)-3-(4-((2-((pyridin-2-ylmethyl)amino)pyridin-4-yl)oxy)naphthalen-1-yl)urea] | 4.3 | −5.0 | 12.0 | 20.5 | 29.9 |  | 
9 | 21 | 12 | > 706 | 1600 | 8 | COc1cc(Nc2cc(Oc3ccc(NC(=O)Nc4cc(C(C)(C)C)cc(CC(N)=O)c4OC)c4ccccc34)ccn2)cc(C(=O)NCCN2CCOCC2)c1 [Example 45, 3-((4-((4-(3-(3-(2-Amino-2-oxoethyl)-5-(tert-butyl)-2-methoxyphenyl)ureido)naphthalen-1-yl)oxy)pyridin-2-yl)amino)-5-methoxy-N-(2-morpholinoethyl)benzamide] | 1.2 |  |  |  | 49.6 | 36.4 | 5.2
10 | 25 | 14 | 26 | 1200 |  | COc1cc(Nc2cc(Oc3ccc(NC(=O)Nc4cc(C(C)(C)C)cc(CNC(C)=O)c4OC)c4ccccc34)ccn2)cc(C(=O)NCCN2CC[S+]([O-])CC2)c1 [Example 71, 3-((4-((4-(3-(3-(Acetamidomethyl)-5-(tert-butyl)-2-methoxyphenyl)ureido)naphthalen-1-yl)oxy)pyridin-2-yl)amino)-5-methoxy-N-(2-(1-oxidothiomorpholino)ethyl)benzamide] | 3.4 |  |  |  | 48.3 | 33.7 | 7.2
11 | 134 | 78 | > 1100 | 2320 |  | COc1cc(Nc2cc(Oc3ccc(NC(=O)Nc4cc(C(C)(C)C)cc(P(C)(C)=O)c4OC)c4ccccc34)ccn2)cc(S(=O)(=O)N(C)CCN2CCOCC2)c1 [Example 75, 3-((4-((4-(3-(5-(tert-Butyl)-3-(dimethylphosphoryl)-2-methoxyphenyl)ureido)naphthalen-1-yl)oxy)pyridin-2-yl)amino)-5-methoxy-N-methyl-N-(2-morpholinoethyl)benzenesulfonamide] | 1.6 |  |  |  | 13.9 | 115 | 3
